Test results as given in patent US20250249001A1, “METHODS OF TREATING SUBSTANCE USE DISORDER WITH 4-(3-CYANOPHENYL)-6-PYRIDINYLPYRIMIDINE MGLU5 NEGATIVE ALLOSTERIC MODULATORS” (Tempero Bio, Inc., priority 2022, published 2025).

What was measured:
[1] = test system: voluntary home-cage alcohol drinking by Wistar rats; assay: Home-cage two-bottle choice alcohol drinking, acute treatment; assay type: in vivo
Procedure: Animals: Male Wistar rats (Charles River Laboratories, INC) were used in these studies. Rat housing and testing was conducted at the University of North Carolina at Chapel Hill (UNC-CH) School of Medicine in a state-of-the-art rodent vivarium approved by the Association for Assessment and Accreditation of Laboratory Animal Care International (AAALAC). Rat health was monitored daily by study investigators and veterinarians in the Division of Comparative Medicine UNC. All experimental procedures were carried out in accordance with the NIH Guide to Care and Use of Laboratory Animals (Committee for the Update of the Guide for the Care and Use of Laboratory Animals, 2011) and institutional guidelines.
Rats were housed individually in standard Plexiglas cages with standard rodent food and water available ad libitum. Upon arrival from the vendor, rats were given 7 days to acclimate to the vivarium during which they were weighed and handled by an investigator each day to monitor general health and habituate them to human contact. Rats were then weighed each day within 1-h of experimental procedures to calculate drug dosages relative to body weight. […] The colony was maintained at […] on a 12-hour light/dark cycle, with the lights on from 10 AM-10 PM. All behavioral experiments were conducted during the light portion of the light cycle.
Home-cage alcohol drinking method. Oral alcohol and water intake were examined using a two-bottle choice protocol, which is standard in the field and commonly used in our laboratory. Male Wistar rats (n=12) were first adapted to drinking from a 50 ml conical tube fitted with a standard stainless-steel ball bearing sipper tube that limits spillage. Then, two bottles were place on the cage daily. One bottle contained an alcohol solution and the other contained water. Bottles containing fresh solutions were weighed daily before and after a 24 hr access period. After drug treatment, bottles were weighed after 1 hr and 24 hrs of access. Each week, rats had 4-5 days of sweetened alcohol and water available and the remaining days only water.
Briefly, rats were first exposed to alcohol (10% v/v)+sucrose (5% w/v). versus water in the two bottles. Then, over a period of 6-weeks, the concentrations of alcohol and sucrose were gradually adjusted to alcohol (8% v/v)+sucrose (2% w/v) to achieve intake of pharmacologically relevant doses of alcohol. Rats were maintained at this concentration for the duration of the experiment for both acute (3.1.a) and chronic (3.1.b) home-cage drinking studies. Use of sweetened alcohol solutions in preclinical research provides face validity to the binge-intoxication stage of alcohol addiction in humans where sweeteners are commonly added to alcohol.
Compound 1 treatment. After establishing baseline intake of sweetened alcohol and water, rats were habituated to i.p. injections. All rats (N=12) were administered 3 habituation injections of vehicle (10% w/v kolliphor in BCD (10%)) prior to the Compound 1 dose response curve and alcohol intake was measured. Then, the Compound 1 dose response curve was conducted with dose order randomized according to a modified Latin-Square design. Rats were given a minimum of 1-2 days between injections to ensure normal drinking was re-established in absence of drug administration. Each dose of Compound 1 (0-10 mg/kg) was administered via i.p. injection and rats were placed back in the home-cage for 1 hr prior to the return of sweetened alcohol and water. Alcohol intake was measured after 1-h and 24-hrs of access in grams by weighing the drinking bottles. Data were excluded from 1 rat that emptied both bottles fully each day without drinking the solutions; thus, results are presented for a final group of N=11 rats.
Efficacy comparisons to MPEP and Naltrexone. […]

[2] = test system: operant alcohol self-administration in Wistar rats; assay: Operant alcohol self-administration (FR-1), acute treatment; assay type: in vivo; set-up: alcohol reinforced lever press responses: dose or concentration left out as unconfirmed; settings: 1-h pretreatment
From the text: Twelve operant conditioning chambers designed for rats (30.5 cm×24.1 cm×21.0 cm; Med Associates, Georgia, VT) were located within sound-attenuating cubicles in a devoted room to limit extraneous potential impact by extraneous environmental variables. Each cubicle was equipped with an exhaust fan that provided ventilation and masked external sounds. The chambers were electronically interfaced to a Microsoft Windows based computer that was programmed using investigator developed software to control sessions and record number of lever press responses at 100-ms intervals.
The right wall of each chamber contained a liquid receptacle and a response lever (Med Associates) that was termed the active lever. Lever press responses on the active lever activated a syringe pump (PHM-100, Med Associates) that delivered 0.1 ml of alcohol solution (ethanol 8% v/v+sucrose 2% w/v) into the receptacle over a 1.66-s period. Head entries into the liquid receptacle were recorded when an infrared photo beam was broken. A stimulus light located above the response lever was illuminated during pump activation. Lever presses during reinforcer delivery were recorded but produced no programmed consequence. […] Behavior on this lever serves as a control for motor disruptions and other nonspecific effects of test compounds. […]
Testing the efficacy of Compound 1 to reduce the reinforcing, or rewarding, effects of alcohol. Following establishment of stable baseline self-administration behavior, effects of pre-session treatment with the novel mGluR5 negative allosteric modulator Compound 1 (0, 0.3, 1, 3, and 10 mg/kg, IP) were evaluated on operant alcohol self-administration behavior (n=12 rats). […] Parameters of operant performance were measured, including total lever press responses, number of headpokes into the liquid receptacle, and rate of operant responding, which is a direct measure of positive reinforcement function. […]

SMILES: N#Cc1cc(Cl)cc(-c2cc(-c3ccc(F)cn3)ncn2)c1 [Compound 1, 3-chloro-5-[6-(5-fluoropyridin-2-yl)pyrimidin-4-yl]benzonitrile]
- alcohol intake after 24-hrs of access vs vehicle ([1]; 10 mg/kg i.p. acute): did not achieve statistical significance
- dosage giving the greatest reduction in EtOH intake ([1]; 1-hr access, dose range 0-10 mg/kg i.p.): 3 mg/kg
- alcohol intake (EtOH g/kg/1-h) after 1-hr access vs vehicle control ([1]; Compound 1 1, 3, and 10 mg/kg i.p. acute, 1 hr before access, sweetened alcohol, N=11): significantly decreased alcohol intake
- alcohol intake after 24-hrs of access vs vehicle ([1]; Compound 1 1 and 3 mg/kg i.p. acute): significantly decreased alcohol intake
- alcohol intake at the 24-hr measurement interval, comparison of equivalent doses ([1]; each drug 3 mg/kg i.p. acute): maintained efficacy
- alcohol drinking at 1-hr of access vs vehicle control, positive control comparison ([1]; each drug 3 mg/kg i.p. acute, N=11): significantly decreased alcohol drinking
- EtOH reinforced responses vs vehicle, multiple comparisons ([2]; 10 mg/kg IP): reduced EtOH reinforced responses
- alcohol reinforced lever press responses ([2]; IP (so in the source), 15-min test sessions): reduced alcohol reinforced lever press responses in a dose-dependent manner
